PubChem BioAssay AID489041 (Sanford-Burnham Center for Chemical Genomics, 2010)
Active and inactive are the calls of the source. No rule for the calls is given here.

tested on: HEK-293T NF-kB luciferase reporter counterscreen, luminescence; test: inhibitors of HEK-293T NF-kB luciferase – HEK-293T cells, luminescence, counter-screen for T-cell antigen receptor NF-kB inhibitors, dose response (AID 489041)

SMILES	IC50
COc1ccccc1N1CCN(C(=O)c2cc(=O)c3cc(C)cc(C)c3o2)CC1	76 µM (inactive)
CCOC(=O)C(C)Oc1cccc2c(=O)n(CC(=O)NCc3ccc(F)cc3)ccc12 (centres undefined)	9.67 µM
C=CCOC(=O)c1[nH]c2c(c1C)C(=O)CC(c1ccco1)C2 (centres undefined)	< 0.16 µM
COc1ccccc1CNS(=O)(=O)c1ccc(-c2cnc(C3CC3)o2)cc1	2.6 µM
COc1ccc(CC(=O)Nc2nc(-c3ccc(F)c(F)c3)cs2)cc1OC	2.87 µM
Cc1c(C(=O)OC2CCCC2)[nH]c2c1C(=O)CC(c1ccco1)C2 (centres undefined)	0.45 µM
Cc1ccc(N/C(N)=N/c2nc(CSc3nnc(C)s3)cc(=O)[nH]2)c(C)c1	4.17 µM
Cc1nc(SCC(=O)Nc2nc3ccccc3s2)c(C#N)c(C)c1C	< 0.16 µM
COc1ccccc1NC(=O)c1cnc(Nc2ccccc2OC)c2ccccc12	> 80 µM (inactive)
O=C(COc1ccc2c(-c3ccccc3)cc(=O)oc2c1)Nc1cccnc1	0.26 µM
CC1CCN(c2c(NCc3ccc(C(=O)N4CCc5ccccc54)cc3)c(=O)c2=O)CC1	7.14 µM
CC[C@]1(O)CC2CN(CCc3c([nH]c4ccccc34)[C@@](C(=O)OC)(c3cc4c(cc3OC)N(C=O)[C@H]3[C@@](O)(C(=O)OC)[C@H](OC(C)=O)[C@]5(CC)C=CCN6CC[C@]43[C@@H]65)C2)C1 (some centres undefined)	3.12 µM
Cc1nc(Nc2nc3c(c(=O)[nH]2)CCC3)nc2ccccc12	40.1 µM (inactive)
Cn1nc(CC(=O)Nc2ccc(N3CCN(C(=O)OC(C)(C)C)CC3)cc2)c2ccccc2c1=O	0.76 µM
O=C(Nc1ccc(S(=O)(=O)Nc2ccc(F)cc2)cc1)c1ccc(CN2CCOCC2)cc1	5.68 µM
C=CCn1c(C)cc(C2=NNC(=NCC)SC2)c1C	1.43 µM
COc1ccc(OC)c(COC(=O)c2cc([N+](=O)[O-])ccc2N2CCOCC2)c1	52.4 µM (inactive)
Cc1ccc2c(c1)sc(-c1ccc(N(C)C)cc1)[n+]2C	0.87 µM
COc1cc(/C=C/c2ccc3cccc(O)c3n2)cc(OC)c1OC	> 80 µM (inactive)
COc1ccc(/C=c2/sc3n(c2=O)C(c2ccccc2OC)C2=C(N=3)c3ccccc3CC2)cc1O (centres undefined)	> 80 µM (inactive)
CC(C)CC[n+]1ccccc1/C=C/c1ccc(N(C)C)cc1	1.62 µM
COC(=O)c1ccccc1NC(=O)CSc1nc(-c2ccco2)cc(C(F)(F)F)n1	7.95 µM
CC/C=C/CC(=O)N[C@@H](c1ccccc1)[C@@H](O)C(=O)O[C@H]1C[C@@]2(O)[C@@H](OC(=O)c3ccccc3)C3[C@](C)(C(=O)[C@H](OC(C)=O)C(=C1C)C2(C)C)[C@@H](O)C[C@H]1OC[C@@]31OC(C)=O (some centres undefined)	> 80 µM (inactive)
COc1ccc(C(=O)N2CCN(c3ccc([N+](=O)[O-])c(NCCc4ccc(OC)c(OC)c4)c3)CC2)cc1	0.31 µM
COc1ccc(CNS(=O)(=O)c2cc(-c3cc(C)no3)ccc2C(C)C)cc1	10.9 µM

SMILES	IC50
CCOC(=O)c1ccccc1NS(=O)(=O)c1ccc(OCC)cc1	17.7 µM
CC(=O)O[C@H]1C(=O)[C@@]2(C)[C@H]([C@H](OC(=O)c3ccccc3)[C@]3(O)C[C@H](OC(=O)[C@H](O)[C@@H](NC(=O)c4ccccc4)c4ccccc4)C(C)=C1C3(C)C)[C@]1(OC(C)=O)CO[C@@H]1C[C@@H]2O	> 80 µM (inactive)
COc1ccccc1-c1nnc2n1N=C(c1ccc(O)c(O)c1)CS2	2.41 µM
Cn1nc([N+](=O)[O-])nc1Sc1nnc(-c2ccccc2)o1	37.5 µM (inactive)
O=C(N=Nc1c(O)[nH]c2ccc(Br)cc12)c1ccccc1-n1cccc1	7.76 µM
COc1ccc(OC)c(CCNC(=O)Cn2nc(C)c3c(C)n(-c4ccc(C)cc4)nc3c2=O)c1	1.28 µM
COc1ccc(S(=O)(=O)N2N=C(C)Oc3ccccc3C2=O)cc1	29.9 µM (inactive)
COC(=O)Nc1ccc(S(=O)(=O)N2c3ccccc3CCC2C)cc1 (centres undefined)	13.1 µM
CCC(=O)N1c2ccc(S(=O)(=O)N3CCN(c4ccc([N+](=O)[O-])cc4)CC3)cc2CC1C (centres undefined)	> 80 µM (inactive)
C[C@@H]1O[C@@H](O[C@H]2C[C@@H](O)[C@]3(CO)[C@@H]4C(CC[C@]3(O)C2)[C@@]2(O)CC[C@H](C3COC(=O)C3)[C@@]2(C)C[C@H]4O)[C@H](O)[C@H](O)[C@H]1O (some centres undefined)	0.69 µM
CCCC[C@@H](C)C[C@@H](C)C(=O)N(C)[C@@H](CC(C)C)C(=O)N[C@H](C(=O)N(C)[C@H](C(=O)N1C[C@@H](O)C[C@H]1C(=O)N1C(=O)C=C[C@@H]1C)C(C)C)C(C)OC(C)=O (some centres undefined)	< 0.16 µM
O=[N+]([O-])c1ccc(O)c(/C=N/Nc2ccc(Cl)nn2)c1	> 80 µM (inactive)
Cc1ccc(NC(=O)C2=C(c3ccccc3)S(=O)(=O)CCS2(=O)=O)cc1	8.74 µM
CCCCCCCCCn1c2c(c(=N)c3c1CCC3)CCC2	0.98 µM
Cc1ccccc1NC1=C/C(=N\S(=O)(=O)c2cccs2)c2ccccc2C1=O	0.41 µM
Cc1nc(Sc2nnnn2C)c2c3c(sc2n1)CCC3	31.4 µM (inactive)
COc1ccc(N(C(=O)c2ccccc2C)S(=O)(=O)c2cccs2)cc1	> 80 µM (inactive)
Cc1ccc(Nc2nc(-c3c(C)nc4ccccn34)cs2)cc1	0.59 µM
Cn1ncnc2c(=O)n(C)c(=O)nc1-2	1.11 µM
CCOCCOC(=O)c1[nH]c2c(c1C)C(=O)CC(c1ccccc1)C2 (centres undefined)	3.05 µM
C/C=C(\C)C(=O)N[C@@H](c1ccccc1)[C@@H](O)C(=O)O[C@H]1C[C@@]2(O)[C@@H](OC(=O)c3ccccc3)C3[C@](C)(C(=O)[C@H](OC(C)=O)C(=C1C)C2(C)C)[C@H](O)C[C@H]1OC[C@@]31OC(C)=O (some centres undefined)	> 80 µM (inactive)
CCCCCCCCCCn1ccc(=N)cc1	0.61 µM
Cc1ccc(Nc2nc(-c3c(C)nc4ncccn34)cs2)cc1	1 µM
COc1ccc(Nc2nc(-c3sc(C)nc3C)cs2)cc1	6.91 µM
